Consider four molecules from patent US20220017971A1, “COMPOSITION FOR PREDICTING CHEMOTHERAPY RESISTANCE OF OVARIAN CANCER AND USE THEREOF” (KOOKMIN UNIVERSITY INDUSTRY ACADEMY COOPERATION FOUNDATION, priority 2020, published 2022).

Assay type in all cases: cell-based
In series [1] the test system is PCNA. Briefly: PCNA expression (qPCR, immunofluorescence), OV90. The note with it: OV90 cells; for PCNA expression: anticancer drug alone; for PCNA expression reduced by cisplatin: combined treatment with cisplatin. How it is done:
(§1) cDNA was synthesized from 1 μg of RNA using AccuPower RT PreMix (Bioneer, Daejeon, Korea). Gene expression was measured using SYBR Green (Sigma) and the StepOnePlus Real-Time PCR system (Applied Biosystems, Foster City, Calif.). PCR conditions were incubated at 95° C. for 3 minutes, then 95° C. 30 seconds, 60° C. 30 seconds, and 72° C. 3 minutes conditions were amplified 40 times, and normalized based on the GAPDH expression level.
(§2) Transfected epithelial ovarian cancer cells were fixed with methanol for 10 minutes and treated with PCNA antibody diluted in 1:100. After that, after washing twice with PBS containing 0.1% bovine serum albumin (BSA), the secondary antibody goat anti-mouse IgG Alexa 488 (catalog number: A11017, Invitrogen, Carlsbad, Calif.) was added to antibody dilution buffer so as to be diluted in 1:200 and incubated for 1 hour at room temperature.
(§3) After washing the cells with 0.1% BSA-PBS, DAPI staining was additionally performed to allow simultaneous observation of the target protein as well as the nucleus. After finishing the experiment, cells were observed and photographed using an LSM710 (Carl Zeiss, Thornwood, N.Y., USA) confocal microscope.
(In qPCR the cycle at which signal appears reflects the starting amount.)

Series [2] deals with OV90 cells. The series can be described thus: Cell proliferation capacity using BrdU, OV90. The note with it: for proliferative capability (BrdU incorporation): agent alone; for proliferative capability reduced by cisplatin (BrdU): combined treatment with cisplatin; for proliferative capability reduced by paclitaxel (BrdU): combined treatment with paclitaxel. On the procedure: (§4) Epithelial ovarian cancer OV90 and ES2 cells were cultured in 6 wells, and a non-specific control and target oligonucleotide were transfected using Lipofectamine 2000 (Invitrogen). All oligonucelotides were synthesized by to Bioneer. Oligonucleotide and Lipofectamine 2000 were diluted in Opti-MEM reduced serum medium (Gibco, Cat No: 32985070) and then treated with cells. After 6 h of incubation at 37° C. in a 5% CO2 incubator, the medium was replaced with a medium containing FBS.
(§5) An experiment was performed according to the manufacturer's manual using the BrdU kit (Cat No: 1167229001, Roche) to confirm the change in the proliferation ability of epithelial ovarian cancer cells. After 48 hours of incubation, 10 μM BrdU was additionally added to each well and incubated for 2 hours at 37° C./5% CO2 in an incubator. After labeling the epithelial ovarian cancer cells with BrdU and fixing the cells, they were incubated with anti-BrdU-POD solution at room temperature for 90 minutes, and then washed three times. Finally, the cells were reacted with 100 μl of 3,3′, 5,5′-tetramethylbenzidine substrate, and the cell proliferation ability was analyzed by measuring the absorbance at 370 nm and 492 nm using an ELISA reader.
On the technique in general: Incorporation of labelled thymidine or its analogues reports DNA synthesis.

Series [3] deals with ES2 cells. The series can be described thus: Cell proliferation capacity using BrdU, ES2. To be noted: for proliferative capability (BrdU incorporation): agent alone; for proliferative capability reduced by cisplatin (BrdU): combined treatment with cisplatin; for proliferative capability reduced by paclitaxel (BrdU): combined treatment with paclitaxel. On the procedure:
as §4, §5

Series [4] has as its system PCNA. Briefly: PCNA expression (qPCR, immunofluorescence), ES2. To be noted: ES2 cells; for PCNA expression: anticancer drug alone; for PCNA expression reduced by cisplatin: combined treatment with cisplatin. How it is done:
as §1, §2, §3

Series [5] has as its system OV90 cells. Briefly: Mitochondrial membrane potential by JC-1 staining, OV90. How it is done: (§6) JC-1 mitochondrial membrane potential (MMP) changes were measured using a mitochondria staining kit (Cat No: CS0390, Sigma-Aldrich). 5×10^5 ES2 and OV90 cells were each aliquoted into 6 wells, and the cells were cultured until 70 to 80% abundance of the culture dish appeared. Thereafter, the miR-214-3p inhibitor was dose-dependently treated and cultured in a 37° C./5% CO2 incubator for 48 hours. Thereafter, cells were collected from the culture dish using trypsin and centrifuged to obtain a cell pellet. Cells were dissolved in JC-1 staining solution and incubated for 20 minutes at 37° C./5% CO2 incubator. The stained cells were centrifuged again, washed with 1×JC-1 staining buffer, and then fluorescence intensity was analyzed using a flow cytometer.

In series [6] the test system is OV90 cells. Briefly: Cell cycle analysis using propidium iodide staining, OV90. To be noted: 48 hours. On the procedure:
(§7) In order to confirm the cell cycle change of ovarian cancer cells by the miR-214-3p inhibitor, 5×10^5 cells were cultured in 6 wells until 70 to 80% abundance appeared. Thereafter, miR-214-3p inhibitors were treated in a dose-dependent manner (10, 20, 40 nM) and cultured in a 37° C./5% CO2 incubator for 48 hours. Then, using trypsin, the cells were removed from the culture dish, washed with PBS, and the cells were slowly mixed using 1 mL of 1× binding buffer, and then centrifuged to obtain a cell pellet.
(§8) Next, the cells were suspended and cultured with 200 μL of 1× binding buffer, put in 100 μL in a brown 1.5 mL tube, and 5 μL of RNase and 5 μL of PI were mixed together to stain the cells for 1 hour at room temperature. After that, 400 μL of 1× binding buffer was added, the stained solution was transferred to a 5 mL FACS tube, and the fluorescence intensity was analyzed using a flow cytometer to measure the number of cells corresponding to each cell cycle.

For series [7], the system named is OV90 cells. Briefly: Cell migration, OV90.
Series [8] has as its system ES2 cells. Briefly: Mitochondrial membrane potential by JC-1 staining, ES2. On the procedure: as §6
In series [9] the test system is ES2 cells. Briefly: Intracellular ROS measurement using DCFH-DA, ES2. On the procedure:
(§9) ES2 and OV90 cells were collected through trypsin and centrifuged to obtain a cell pellet. After washing once with PBS, 10 μM of DCFH-DA was incubated in an incubator at 37° C. for 30 minutes. Thereafter, the cells were washed twice with PBS, and a miR-214-3p inhibitor was added thereto and incubated in an incubator at 37° C. for 1 hour. Treated cells were washed again with PBS and analyzed for DCF fluorescence intensity using flow cytometry.

Series [10] relates to LHX6. Briefly: LHX6 gene expression after oligonucleotide transfection (qPCR), ES2. The note with it: ES2 cells. How it is done:
as §1, §4
(§10) Next, to analyze whether miR-214-3p can alter the characteristics of epithelial ovarian cancer cells, OV90 and ES2 cells, epithelial ovarian cancer cell lines, were transfected with a mimic for miR-214 and an inhibitor for miR-214-3p (SEQ ID NO: 2: 5′-ACUGCCUGUCUGUGCCUGCUGU-3′).

In series [11] the test system is ES2 cells. Briefly: Cell migration, ES2.
The subject of series [12] is LHX6. Briefly: LHX6 gene expression after oligonucleotide transfection (qPCR), OV90. To be noted: OV90 cells. On the procedure:
as §1, §4, §10

Series [13] relates to OV90 cells. Briefly: Intracellular ROS measurement using DCFH-DA, OV90. On the procedure:
as §9

The test system of series [14] is OV90 cells. Briefly: Intracellular calcium concentration by fluo-4 staining, OV90. On the procedure:
(§11) To check the intracellular calcium concentration of ovarian cancer cells, 3 μM of fluo-4 acetoxymethyl ester (AM) (Invitrogen) was used. First, 5×10^5 cells were cultured in 6 wells. Thereafter, the miR-214-3p inhibitor was dose-dependently treated and cultured in a 37° C./5% CO2 incubator for 48 hours. After that, cells were removed from the culture dish using trypsin, washed with PBS, and stained with 3 μM fluo-4 in an incubator at 37° C./5% CO2 for 20 minutes, washed with PBS, and then the stained solution was transferred into a FACS tube and the fluorescence intensity was analyzed using a flow cytometer to […].
Background: Calcium flux is commonly read through the fluorescence of an indicator in the cells.

Series [15] deals with ES2 cells. Briefly: Apoptosis by annexin V and propidium iodide staining, ES2. On the procedure: (§12) In order to confirm the change in the apoptosis effect of epithelial ovarian cancer cells, an experiment was performed using the FITC Annexin V cell death diagnostic kit I (BD Biosciences). Using trypsin, the cells were removed from the culture dish, washed with PBS, and the cells were slowly mixed using 1 mL of 1× binding buffer and then centrifuged to obtain a cell pellet.
(§13) Next, the cells were suspended and cultured with 200 μL of 1× binding buffer, put into 100 μL of a brown 1.5 mL tube, and cells were mixed with 5 μL of Annexin V and 5 μL of PI, and then stained at room temperature for 15 minutes. After that, 400 μL of 1×binding buffer was added and the stained solution was transferred to a 5 mL FACS tube, and then the fluorescence intensity was analyzed using a flow cytometer to measure the number of apoptotic cells.

Series [16] deals with ES2 cells. Briefly: Intracellular calcium concentration by fluo-4 staining, ES2. On the procedure: as §11
The test system of series [17] is OV90 cells. Briefly: Apoptosis by annexin V and propidium iodide staining, OV90. How it is done: as §12, §13
For series [18], the system named is ES2 cells. Briefly: Cell cycle analysis using propidium iodide staining, ES2. To be noted: 48 hours. How it is done: as §7, §8
The mark [19] stands for this setting: combined treatment with paclitaxel.

Consider `N.N.[Cl][Pt][Cl]` [cisplatin], for which the PCNA expression entry with PCNA [1] and in the series on PCNA [4] was “significantly reduced” each time. In addition, the “proliferative capability (BrdU incorporation)” value with OV90 cells [2] and in the series on ES2 cells [3] was “reduced” in each case.

Turning to `CC(=O)O[C@H]1C(=O)[C@@]2(C)[C@H]([C@H](OC(=O)c3ccccc3)[C@]3(O)C[C@H](OC(=O)[C@H](O)[C@@H](NC(=O)c4ccccc4)c4ccccc4)C(C)=C1C3(C)C)[C@]1(OC(C)=O)CO[C@@H]1C[C@@H]2O` [paclitaxel], the PCNA expression result in the series with PCNA [1] and with PCNA [4] was “reduced” throughout. Moreover, the “proliferative capability (BrdU incorporation)” value in the series with OV90 cells [2] and in the series on ES2 cells [3] was “reduced” each time.

As to “miR-214-3p inhibitor: inhibitor for miR-214-3p (SEQ ID NO: 2: 5′-ACUGCCUGUCUGUGCCUGCUGU-3′) (ACUGCCUGUCUGUGCCUGCUGU; listed as RNA, chemistry not given here)”, the mitochondrial membrane potential result in the series with OV90 cells [5] and in the series with ES2 cells [8] was “induced a change” throughout. The “PCNA expression reduced by cisplatin” value in the series on PCNA [1] and in the series on PCNA [4] was “further decreased” throughout. Also, the “PCNA expression reduced by paclitaxel” value in the series with PCNA [1] (setting [19]) and with PCNA [4] (setting [19]) was “further decreased” throughout. In addition, the “sub-G1 of the cell cycle” value with OV90 cells [6] and with ES2 cells [18] was “increasing” throughout. The cell migration result in the series on OV90 cells [7] and in the series on ES2 cells [11] was “reduced” in each case. In addition, the reactive oxygen species result with ES2 cells [9] and with OV90 cells [13] was “increased” each time. Further, the “expression of the target gene LHX6” value in the series with LHX6 [10] and in the series with LHX6 [12] was “increased” throughout. Also, the “proliferative capability (BrdU incorporation)” value in the series on OV90 cells [2] and in the series on ES2 cells [3] was “inhibit the proliferative capability” in each case. For the same molecule, the “proliferative capability reduced by cisplatin (BrdU)” value in the series on OV90 cells [2] and in the series with ES2 cells [3] was “further reduced” in each case. Also, the “proliferative capability reduced by paclitaxel (BrdU)” value in the series with OV90 cells [2] and in the series on ES2 cells [3] was “further reduced” throughout. In addition, the intracellular calcium ions entry in the series on OV90 cells [14] and in the series on ES2 cells [16] was “increased” each time. Also, the “increase of apoptotic cells” value is given as 1.7 fold in the series on ES2 cells [15] (40 nM, p<0.001) and 2.6 fold in the series on OV90 cells [17] (40 nM, p<0.001). Also, the “apoptotic cell death compared to the control group” value with ES2 cells [15] (transfection) and in the series with OV90 cells [17] (transfection) was “significantly increased” throughout.

Regarding “siLHX6: siRNA that inhibits the expression of LHX6 (SEQ ID NO: 3 sense 5′-GAG UCA UCC UUU UUC AGU A-3′, SEQ ID NO: 4 antisense) (sense GAGUCAUCCUUUUUCAGUA; antisense UACUGAAAAAGGAUGACUC; listed as RNA, chemistry not given here)”, the “PCNA expression reduced by cisplatin” value with PCNA [1] and with PCNA [4] was “restored” in each case. For the same molecule, the “mRNA and protein level expression of PCNA” value is recorded as “significantly increased” in the series on PCNA [1] (qPCR and immunofluorescence); “significantly increased” in the series on PCNA [4] (qPCR and immunofluorescence). Moreover, the “increase of proliferative levels” value in the series with OV90 cells [2] (40 nM) and in the series with ES2 cells [3] (40 nM) was 1.4 fold throughout. Besides, the “proliferative capability (BrdU incorporation)” value with OV90 cells [2] and with ES2 cells [3] was “significantly increased” throughout. In addition, the “proliferative capability reduced by cisplatin (BrdU)” value with OV90 cells [2] and in the series on ES2 cells [3] was “restored” in each case. Besides, the “proliferative capability reduced by paclitaxel (BrdU)” value with OV90 cells [2] and in the series with ES2 cells [3] was “restored” in each case.
